# Test results as given in PMC10114980, “Triple targeting of mutant EGFR^L858R/T790M, COX-2, and 15-LOX: design and synthesis of novel quinazolinone tethered phenyl urea derivatives for anti-inflammatory and anticancer evaluation” (Journal of Enzyme Inhibition and Medicinal Chemistry, 2023).
# Tests used:
# ovine COX-1 = molecular target: T1, ovine COX-1 (Ovis aries, UniProt P05979); assay: In vitro COX-1 inhibition assay kit (Cayman); assay type: biochemical; conditions: mean ± SEM, n = 3 replicates
# T1 sequence (P05979 25-600): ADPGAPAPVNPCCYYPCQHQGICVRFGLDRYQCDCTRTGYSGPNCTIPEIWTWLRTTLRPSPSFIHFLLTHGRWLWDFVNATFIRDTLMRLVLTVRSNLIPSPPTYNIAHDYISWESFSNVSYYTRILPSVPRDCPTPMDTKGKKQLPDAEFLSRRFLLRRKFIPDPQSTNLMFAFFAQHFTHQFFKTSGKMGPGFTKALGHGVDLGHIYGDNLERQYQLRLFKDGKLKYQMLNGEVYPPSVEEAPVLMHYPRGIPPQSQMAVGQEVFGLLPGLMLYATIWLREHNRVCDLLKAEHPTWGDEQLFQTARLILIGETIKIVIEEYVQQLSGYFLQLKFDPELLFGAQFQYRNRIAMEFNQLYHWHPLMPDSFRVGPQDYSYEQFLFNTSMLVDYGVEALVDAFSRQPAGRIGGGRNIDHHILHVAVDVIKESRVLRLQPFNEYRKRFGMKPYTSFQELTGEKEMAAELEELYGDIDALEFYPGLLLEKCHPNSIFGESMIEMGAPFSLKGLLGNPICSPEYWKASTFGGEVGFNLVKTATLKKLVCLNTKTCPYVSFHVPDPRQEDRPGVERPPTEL
# Description: The half-maximal inhibitory concentration (IC50, μM) was determined, and the COX-2 selectivity index (SI) was calculated as IC50 (COX-1)/IC50 (COX-2).
# wild-type EGFR = molecular target: T2, wild-type EGFR (Homo sapiens, UniProt P00533); assay: In vitro EGFR inhibition assay, wild type; assay type: biochemical; conditions: read-out: EGFR^WT IC50
# T2 construct: purchased AssayQuant Technologies, Inc. (Marlboro, MA, USA)
# T2 sequence (P00533 25-1210): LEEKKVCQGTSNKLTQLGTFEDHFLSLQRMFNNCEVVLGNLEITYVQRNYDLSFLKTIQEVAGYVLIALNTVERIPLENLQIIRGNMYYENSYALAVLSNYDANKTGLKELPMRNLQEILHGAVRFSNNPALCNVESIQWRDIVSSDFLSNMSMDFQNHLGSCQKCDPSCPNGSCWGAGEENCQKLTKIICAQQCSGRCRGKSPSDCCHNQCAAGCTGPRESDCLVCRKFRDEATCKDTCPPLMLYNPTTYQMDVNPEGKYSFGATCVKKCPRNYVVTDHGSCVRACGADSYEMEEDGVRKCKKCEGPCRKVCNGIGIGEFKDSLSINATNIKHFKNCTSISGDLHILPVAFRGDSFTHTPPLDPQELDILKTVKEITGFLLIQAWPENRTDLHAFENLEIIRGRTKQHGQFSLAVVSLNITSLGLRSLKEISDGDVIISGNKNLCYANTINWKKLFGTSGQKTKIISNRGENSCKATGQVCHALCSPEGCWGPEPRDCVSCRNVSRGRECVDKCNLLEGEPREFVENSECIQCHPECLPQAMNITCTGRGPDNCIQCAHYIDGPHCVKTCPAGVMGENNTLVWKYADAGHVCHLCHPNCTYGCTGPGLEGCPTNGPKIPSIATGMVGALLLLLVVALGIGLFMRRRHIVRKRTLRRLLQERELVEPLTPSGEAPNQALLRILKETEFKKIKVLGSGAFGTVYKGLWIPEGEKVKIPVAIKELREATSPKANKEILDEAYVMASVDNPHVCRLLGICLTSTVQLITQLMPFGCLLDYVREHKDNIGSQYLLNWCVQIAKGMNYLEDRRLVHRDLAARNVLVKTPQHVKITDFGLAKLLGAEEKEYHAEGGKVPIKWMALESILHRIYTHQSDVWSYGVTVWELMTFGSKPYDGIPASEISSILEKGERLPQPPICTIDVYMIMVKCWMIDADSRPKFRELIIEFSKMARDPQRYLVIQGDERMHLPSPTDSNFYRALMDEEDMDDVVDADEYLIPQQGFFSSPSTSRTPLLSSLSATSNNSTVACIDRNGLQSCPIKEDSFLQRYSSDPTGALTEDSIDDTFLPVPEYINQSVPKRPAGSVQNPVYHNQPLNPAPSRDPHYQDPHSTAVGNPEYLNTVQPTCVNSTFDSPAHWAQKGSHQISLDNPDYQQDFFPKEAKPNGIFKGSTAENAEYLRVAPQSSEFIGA
# HL-60(TB) = assay: NCI single dose screen, HL-60(TB); assay type: cell-based; conditions: Homo sapiens, leukaemia, single dose 10^−5 M, read-out: growth inhibition percentage
# Description: (§1) Screening of the anticancer activity of the newly synthesised compounds (6a, 6c, 6d, 6e, 6j, 6l, 6m, 6n, 6o, and 6p) was performed by the US National Cancer Institute (NCI) using 60 different human tumour cell lines in accordance with standard procedures formerly reported.
# (§2) In vitro anticancer screening was carried out for the selected compounds at a single dose (10^−5 M) against 60 different human tumour cell lines of nine different cancer cell types: leukaemia, lung, colon, CNS, melanoma, ovarian, renal, prostate, and breast cancers.
# K-562 = assay: NCI single dose screen, K-562; assay type: cell-based; conditions: Homo sapiens, K562; K-562, leukaemia; single dose 10^−5 M; read-out: growth inhibition percentage
# Description: as §1, §2
# RPMI-8226 = assay: NCI single dose screen, RPMI-8226; assay type: cell-based; conditions: Homo sapiens; RPMI-8226, leukaemia; single dose 10^−5 M; read-out: growth inhibition percentage
# Description: as §1, §2
# HOP-62 = assay: NCI single dose screen, HOP-62; assay type: cell-based; conditions: Homo sapiens; HOP-62, non-small cell lung cancer; single dose 10^−5 M; read-out: growth inhibition percentage
# Description: as §1, §2
# NCI-H460 = assay: NCI single dose screen, NCI-H460; assay type: cell-based; conditions: Homo sapiens; NCI-H460, non-small cell lung cancer; single dose 10^−5 M; read-out: growth inhibition percentage
# Description: as §1, §2
# NCI-H522 = assay: NCI single dose screen, NCI-H522; assay type: cell-based; conditions: Homo sapiens; NCI-H522, non-small cell lung cancer; single dose 10^−5 M; read-out: growth inhibition percentage
# Description: as §1, §2
# COLO 205 = assay: NCI single dose screen, COLO 205; assay type: cell-based; conditions: Homo sapiens; COLO 205, colon cancer; single dose 10^−5 M; read-out: growth inhibition percentage
# Description: as §1, §2
# HCC-2998 = assay: NCI single dose screen, HCC-2998; assay type: cell-based; conditions: Homo sapiens; HCC-2998, colon cancer; single dose 10^−5 M; read-out: growth inhibition percentage
# Description: as §1, §2
# HCT-116 = assay: NCI single dose screen, HCT-116; assay type: cell-based; conditions: Homo sapiens; HCT-116, colon cancer; single dose 10^−5 M; read-out: growth inhibition percentage
# Description: as §1, §2
# HT29 = assay: NCI single dose screen, HT29; assay type: cell-based; conditions: Homo sapiens, HT-29; HT29, colon cancer; single dose 10^−5 M; read-out: growth inhibition percentage
# Description: as §1, §2
# SNB-19 = assay: NCI single dose screen, SNB-19; assay type: cell-based; conditions: Homo sapiens; SNB-19, CNS cancer; single dose 10^−5 M; read-out: growth inhibition percentage
# Description: as §1, §2
# LOX IMVI = assay: NCI single dose screen, LOX IMVI; assay type: cell-based; conditions: Homo sapiens, melanoma, single dose 10^−5 M, read-out: growth inhibition percentage
# Description: as §1, §2
# MALME-3M = assay: NCI single dose screen, MALME-3M; assay type: cell-based; conditions: Homo sapiens, melanoma, single dose 10^−5 M, read-out: growth inhibition percentage
# Description: as §1, §2
# M14 = assay: NCI single dose screen, M14; assay type: cell-based; conditions: Homo sapiens; M14, melanoma; single dose 10^−5 M; read-out: growth inhibition percentage
# Description: as §1, §2
# SK-MEL-2 = assay: NCI single dose screen, SK-MEL-2; assay type: cell-based; conditions: Homo sapiens; SK-MEL-2, melanoma; single dose 10^−5 M; read-out: growth inhibition percentage
# Description: as §1, §2
# UACC-257 = assay: NCI single dose screen, UACC-257; assay type: cell-based; conditions: Homo sapiens; UACC-257, melanoma; single dose 10^−5 M; read-out: growth inhibition percentage
# Description: as §1, §2
# A498 = assay: NCI single dose screen, A498; assay type: cell-based; conditions: Homo sapiens; A498, renal cancer; single dose 10^−5 M; read-out: growth inhibition percentage
# Description: as §1, §2
# ACHN = assay: NCI single dose screen, ACHN; assay type: cell-based; conditions: Homo sapiens, renal cancer, single dose 10^−5 M, read-out: growth inhibition percentage
# Description: as §1, §2
# CAKI-1 = assay: NCI single dose screen, CAKI-1; assay type: cell-based; conditions: Homo sapiens; CAKI-1, renal cancer; single dose 10^−5 M; read-out: growth inhibition percentage
# Description: as §1, §2
# SN12C = assay: NCI single dose screen, SN12C; assay type: cell-based; conditions: Homo sapiens, renal cancer, single dose 10^−5 M, read-out: growth inhibition percentage
# Description: as §1, §2
# PC-3 = assay: NCI single dose screen, PC-3; assay type: cell-based; conditions: Homo sapiens; PC-3, prostate cancer; single dose 10^−5 M; read-out: growth inhibition percentage
# Description: as §1, §2
# MCF7 = assay: NCI single dose screen, MCF7; assay type: cell-based; conditions: Homo sapiens; MCF7, breast cancer; single dose 10^−5 M; read-out: growth inhibition percentage
# Description: as §1, §2
# BT-549 = assay: NCI single dose screen, BT-549; assay type: cell-based; conditions: Homo sapiens; BT-549, breast cancer; single dose 10^−5 M; read-out: growth inhibition percentage
# Description: as §1, §2
# MDA-MB-468 = assay: NCI single dose screen, MDA-MB-468; assay type: cell-based; conditions: Homo sapiens; MDA-MB-468, breast cancer; single dose 10^−5 M; read-out: growth inhibition percentage
# Description: as §1, §2
SMILES,IC50 (wild-type EGFR),inhibition at 10 µM (HL-60(TB)),inhibition at 10 µM (K-562),inhibition at 10 µM (RPMI-8226),inhibition at 10 µM (HOP-62),inhibition at 10 µM (NCI-H460),inhibition at 10 µM (NCI-H522),inhibition at 10 µM (COLO 205),inhibition at 10 µM (HCC-2998),inhibition at 10 µM (HCT-116),inhibition at 10 µM (HT29),inhibition at 10 µM (SNB-19),inhibition at 10 µM (LOX IMVI),inhibition at 10 µM (MALME-3M),inhibition at 10 µM (M14),inhibition at 10 µM (SK-MEL-2),inhibition at 10 µM (UACC-257),inhibition at 10 µM (A498),inhibition at 10 µM (ACHN),inhibition at 10 µM (CAKI-1),further results
"CN1c2ccccc2C(=O)N(NC(=O)Nc2ccccc2)C1c1ccc([N+](=O)[O-])cc1 (centres unmarked) [Compound 6e, 1-(1-Methyl-2-(4-nitrophenyl)-4-oxo-1,4-dihydroquinazolin-3(2H)-yl)-3-phenylurea]",48.7 ± 3.47 µM,< 10%,< 10%,< 10%,< 10%,< 10%,< 10%,< 10%,< 10%,53.1%,< 10%,< 10%,< 10%,< 10%,67.2%,< 10%,< 10%,< 10%,< 10%,< 10%,IC50 (ovine COX-1): 9.53 ± 1.21 µM; inhibition at 10 µM (SN12C): < 10%; inhibition at 10 µM (PC-3): < 10%; inhibition at 10 µM (MCF7): < 10%; inhibition at 10 µM (BT-549): 67.1%; inhibition at 10 µM (MDA-MB-468): < 10%
"COc1ccc(NC(=O)NN2C(=O)c3ccccc3N(C)C2c2ccc(OC)cc2)cc1 (centres unmarked) [Compound 6j, 1-(4-Methoxyphenyl)-3-(2-(4-methoxyphenyl)-1-methyl-4-oxo-1,4-dihydroquinazolin-3(2H)-yl)urea]",> 100 µM,< 10%,< 10%,< 10%,< 10%,< 10%,< 10%,< 10%,< 10%,40.6%,< 10%,< 10%,< 10%,< 10%,29.6%,< 10%,21.9%,< 10%,< 10%,< 10%,IC50 (ovine COX-1): 26.9 ± 3.03 µM; inhibition at 10 µM (SN12C): < 10%; inhibition at 10 µM (PC-3): 10.8%; inhibition at 10 µM (MCF7): < 10%; inhibition at 10 µM (BT-549): 70.1%; inhibition at 10 µM (MDA-MB-468): < 10%
"CC1N(NC(=O)Nc2ccc(F)cc2)C(=O)c2ccccc2N1C (centres unmarked) [Compound 6l, 1–(1,2-Dimethyl-4-oxo-1,4-dihydroquinazolin-3(2H)-yl)-3-(4-fluorophenyl)urea]",> 100 µM,< 10%,< 10%,< 10%,< 10%,< 10%,< 10%,< 10%,< 10%,< 10%,< 10%,< 10%,< 10%,< 10%,< 10%,< 10%,< 10%,< 10%,< 10%,< 10%,inhibition at 10 µM (SN12C): < 10%; inhibition at 10 µM (PC-3): < 10%; inhibition at 10 µM (MCF7): 10.7%; inhibition at 10 µM (BT-549): < 10%; inhibition at 10 µM (MDA-MB-468): < 10%
